Four compounds from patent publication US7291638B2, “3-amido-1,2-benzoisoxazole derivatives, process for preparation, and use thereof” (Dongwha Pharm. Ind. Co., Ltd., priority 2001, dated 2007) can be followed below.

Where two headings read alike, the source gives them in different places.

In one series the test system is osteoclast cell. The experiment in a line: Change in the number of osteoclast cell in osteoporotic rats induced by ovariectomy. Type of series: in vivo, rat. To be noted: for osteoclast cells inducing the osteolysis (in words): osteoporotic rats induced by ovariectomy, group administered the drug; for number of osteoclast cell, Tibia Left / number of osteoclast cell, Tibia Right / number of osteoclast cell, femur Left / number of osteoclast cell, femur Right: ovariectomized rats, cells within 1 mm^2 area, 10 sections, mean±SD, PEG 100 solution, intramuscular injection, 40 days; for number of osteoclast cell, femur Right: same concentration as formula 2 (100 mg per kg). The protocol: (§1) To investigate therapeutic value of the osteoporosis to ovariectomized rats, change in the number of osteoclast cell and area ratio of trabecular bone (volume %) were measured.
(§2) After 25 female white rats purchased from Chales River (Japan) were adjusted to a new environment, temperature of 20˜25° C. and relative humidity of 30˜35%. The 5 rats were positioned in a hutch, feed (Sam Yang corporation) and water were supplied to the rats. 20 rats had the operation for the removal of an ovary, 5 rats had the Sham operation for opening and suturing the abdominal cavity, used as Sham control group.
(§3) Also, to compare drug efficacies of EXAMPLE and the compound of formula 2, 5 rats removed of the ovary were used as experimental group. The compound of formula 2 was dissolved in injectable distilled water and administered to the rats orally in an amount of 100 mg per kg for 40 days from 10 weeks after ovariectomy or Sham-operation, using oral sonde. 5 ml/kg was administered to the rats. […] 5 ml/kg was administered to the rats.
(§4) After administration terminated, the femur and tibia were removed from the animals, and fixed in 10% neutral formalin. The fixed tissue was decalcified in a solution (solution mixed 24.4% formic acid and 0.5 N sodium hydroxide) for 5 days, embedded in paraffin and 3˜4 μm sections were prepared. After that prepared section were dyed by hematoxylin-eosin.
Change in the number of osteoclast cell was calculated by mean±standard deviation through the number of the osteoclast cell existed within 1 mm^2 area at the 10 sections. The experiment group administered was compared with the control group not and Sham group.

For series [1], the system named is osteoporotic rat induced by ovariectomy. The experiment in a line: Area ratio of trabecular bone in osteoporotic rats induced by ovariectomy. It counts as in vivo. Particulars: for area ratio of trabecular bone, Femur Left / area ratio of trabecular bone, Tibia Left / area ratio of trabecular bone, Tibia Right / area ratio of trabecular bone, Femur Right: ovariectomized rats, 40 days. How it is done:
as §1, §2, §3, §4
Also, the area ratio of trabecular bone was calculated at the section of the femur and tibia respectively, through the equation.

A short description of series [2]: Pharmacokinetics test in rats (oral; plasma concentration of the compound of formula 2 by HPLC). Type of series: in vivo, rat. The protocol: Male white rats (Sprague-Dawley) having body weights of 230˜260 g were used, 3˜4 rats were tested for a drug. Rats were fasted for 18˜20 hours before the drug was administered. The weight of rat was measured on the day of the experiment, the drug was administered orally to the rats according to dosage. After administration, rats were lightly anesthetized with diethyl ether. At […], 0.17, 0.5, 1.0, 1.5, 3.0, 5.0, 8.0 hours, the blood was collected from orbit vein of the rats by canulation. The collected blood was centrifuged, and the plasma was isolated. To determine concentration of the drug in plasma, HPLC was carried out as follows. Acetonitrile containing internal standard substance and the isolated plasma was mixed in the same amount, followed by centrifuging at 12,000 rpm. The supernatent was applied to HPLC, bioavailability of the compounds prepared in EXAMPLES was measured by analyzing a plasma concentration of the compound of formula 2.
Pharmacokinetics parameters were measured by noncompartmental analysis, using WinNolin (ver. 1.0 Scientific Consulting Inc., USA). Time and maximum plasma concentration were registered by observed data, half life was calculated by linear regression analysis of terminal elimination phase.

Setting [3] is: osteoporotic rats induced by ovariectomy.
Setting [4] is: PEG 100 solution, intramuscular injection.
The mark [5] stands for this setting: male Sprague-Dawley rats, 50 mg/kg, vehicle DW (distilled water).
The mark [6] stands for this setting: male Sprague-Dawley rats, 50 mg/kg, vehicle DW (distilled water), analyte compound of formula 2 in plasma.
Setting [7] is: injectable distilled water, oral, 100 mg per kg.
[8] abbreviates: male Sprague-Dawley rats, 100 mg/kg, vehicle DW (distilled water).

As to `COc1cc(C(=O)N(C(C)C)C(C)C)ccc1OCCCCOc1ccc2onc(NC(=O)[C@H](C)N)c2c1.CS(=O)(=O)O` [Example 2, (1S)-1-{5-[4-(4-diisopropylcarbamoyl-2-methoxy-phenoxy)-butoxy]-benzo[d]isoxazole-3-ylcarbamoyl)-ethyl-ammonium methane sulfonic acid salt], in the series on osteoclast cell, the “osteoclast cells inducing the osteolysis (in words)” value was “significantly decreased”; the “number of osteoclast cell, Tibia Left” value is given as 4.50 ± 1.60*.^#; the “number of osteoclast cell, Tibia Right” value is 5.63 ± 1.30*.^#; the “number of osteoclast cell, femur Left” value is 4.50 ± 1.69*.^#. Moreover, the “number of osteoclast cell, femur Right” value in the series with osteoclast cell is 5.00 ± 1.51*.^##. Moreover, in series [1] (setting [3]), the “area ratio of trabecular bone compared to the control group (in words)” value is “excellently increased” and the “therapeutic value (area ratio of the trabecular bone) compared with the compound of formula 2 (in words)” value was “more distinguished therapeutic value than the compound of formula 2”. Besides, in series [1] (setting [4]), the “area ratio of trabecular bone, Femur Left” value came to 41.95 ± 8.78 volume %; the “area ratio of trabecular bone, Tibia Left” value was 40.12 ± 7.20**.^# volume %; the “area ratio of trabecular bone, Tibia Right” value is on record as 35.58 ± 9.55*.^## volume %. For the same compound, the “area ratio of trabecular bone, Femur Right” value in series [1] (PEG 100 solution, intramuscular injection, same concentration as formula 2 (100 mg per kg)) is given as 33.93 ± 3.71*.^## volume %.

Consider `COc1cc(C(=O)N(C(C)C)C(C)C)ccc1OCCCCOc1ccc2onc(NC(=O)[C@@H](N)C(C)C)c2c1.CS(=O)(=O)O` [Example 4, (1S)-1-{5-[4-(4-diisopropylcarbamoyl-2-methoxy-phenoxy)-butoxy]-benzo[d-]isoxazole-3-ylcarbamoyl)-2-methyl-propyl-ammonium methane sulfonic acid salt], for which, in series [2] (setting [5]), the T1/2 came to 66.6 min, the time to peak (Tmax) was 30 min and the “Total AUC” value amounted to 2.45 µg·h/mL. The same compound gave a Cmax in series [2] (setting [6]) of 0.98 µg/mL.

Regarding `COc1cc(C(=O)N(C(C)C)C(C)C)ccc1OCCCCOc1ccc2c(N)noc2c1` [Formula 2, reference compound], the “Total AUC” value in series [2] (male Sprague-Dawley rats, 50 mg/kg, vehicle DMSO) was determined as 0.19 µg·h/mL. In addition, the Cmax in series [2] (male, Sprague-Dawley, rat, plasma, po, 50 mg/kg, male Sprague-Dawley rats, 50 mg/kg, vehicle DMSO, read-out: Cmax) turned out to be 0.47 µg/mL. Besides, in series [2] (male, Sprague-Dawley, rat, plasma, po, 50 mg/kg, male Sprague-Dawley rats, 50 mg/kg, vehicle DMSO, read-out: Tmax), the Tmax is 10.2 min. In series [2] (male, Sprague-Dawley, rat, plasma, po, 50 mg/kg, male Sprague-Dawley rats, 50 mg/kg, vehicle DW + T (distilled water + tween 80), read-out: Cmax), the Cmax came out at 0.08 µg/mL. Besides, the time of peak concentration (Tmax) in series [2] (male, Sprague-Dawley, rat, plasma, po, 50 mg/kg, male Sprague-Dawley rats, 50 mg/kg, vehicle DW + T (distilled water + tween 80), read-out: Tmax) was 90 min. In addition, the “drug absorption (in words)” value in series [2] (rat, 50 mg per kg, dissolved in distilled water and tween 80) is given as “no drug was absorbed”. Moreover, the half-life in series [2] (rat, plasma, male Sprague-Dawley rats, 50 mg/kg, vehicle DMSO) was 19.2 min. Further, in series [1] (setting [7]), the “area ratio of trabecular bone, Femur Left” value is given as 31.38 ± 7.88*.^## volume %; the “area ratio of trabecular bone, Femur Right” value is listed as 31.69 ± 9.83 volume %; the “area ratio of trabecular bone, Tibia Left” value was determined as 28.22 ± 5.54 volume %; the “area ratio of trabecular bone, Tibia Right” value is recorded as 29.35 ± 11.37 volume %.

Consider “{5-[4-(4-diisopropylcarbamoyl-2-methoxy-phenoxy)-butoxy]-benzo[d]isoxazole-3-ylcarbamoyl}-methyl-ammonium methane sulfonic acid salt [Example 1]”, for which, in series [2] (setting [5]), the Tmax amounted to 30 min and the “Total AUC” value is 5.72 µg·h/mL. In series [2] (setting [6]), this compound came in with a Cmax of 1.53 µg/mL. In series [2] (setting [8]), the Cmax was determined as 1.51 µg/mL, the Tmax was found to be 30 min and the “Total AUC” value was 11.08 µg·h/mL. Also, in the series with osteoclast cell, the “osteoclast cells inducing the osteolysis (in words)” value was “significantly decreased”; the “number of osteoclast cell, Tibia Left” value is recorded as 5.40 ± 2.76*.^##; the “number of osteoclast cell, Tibia Right” value is recorded as 5.30 ± 2.00*.^#; the “number of osteoclast cell, femur Left” value is reported as 5.10 ± 2.38*.^#. Moreover, the “number of osteoclast cell, femur Right” value in the series on osteoclast cell is given as 4.90 ± 1.52*.^#.

The Tmax is the time from dosing to the highest level. The term Cmax denotes the highest concentration seen after dosing. The half-life is how long it takes for the measured level to halve. Higher therefore signals slow decline.
